Test results reported in ChEMBL document CHEMBL1201862, “PubChem BioAssay data set” (2004).
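These data come from cells grown in 96-well plates and exposed to compound for 48 hours at five concentrations. At the GI50, growth is halved.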 Activity calls are given as the source filed them. No stated cut-off is given here; in the data, active = GI50 up to about 1.1 µM and inactive = higher.

What was measured:
Test in all cases: growth of human tumour cells (NCI), 48 h
RPMI-8226 = system: RPMI-8226
SF-539 = system: SF-539
Hs-578T = system: Hs-578T
SN12C = system: SN12C
T47D = system: T47D
A549 = system: A549
OVCAR-4 = system: OVCAR-4
MDA-MB-435 = system: MDA-MB-435
UACC-62 = system: UACC-62
786-0 = system: 786-0
SF-295 = system: SF-295
KM12 = system: KM12
EKVX = system: EKVX
SNB-19 = system: SNB-19
UO-31 = system: UO-31
HCT-116 = system: HCT-116
SF-268 = system: SF-268
K562 = system: K562
NCI-H460 = system: NCI-H460
Malme-3M = system: Malme-3M

Structure (SMILES) | GI50 (RPMI-8226) | GI50 (SF-539) | GI50 (Hs-578T) | GI50 (SN12C) | GI50 (T47D) | GI50 (A549) | GI50 (OVCAR-4) | GI50 (MDA-MB-435) | GI50 (UACC-62) | GI50 (786-0) | GI50 (SF-295) | GI50 (KM12) | GI50 (EKVX) | GI50 (SNB-19) | GI50 (UO-31) | GI50 (HCT-116) | GI50 (SF-268) | GI50 (K562) | GI50 (NCI-H460) | GI50 (Malme-3M)
CC(=O)C(C(c1ccccc1)N1CCOCC1)N1CCOCC1 (centres undefined) | > 100 µM (inactive) | > 100 µM (inactive) | > 100 µM (inactive) | > 100 µM (inactive) | > 100 µM (inactive) | > 100 µM (inactive) | > 100 µM (inactive) | > 100 µM (inactive) | > 100 µM (inactive) | > 100 µM (inactive) | > 100 µM (inactive) | > 100 µM (inactive) | > 100 µM (inactive) | > 100 µM (inactive) | > 100 µM (inactive) | > 100 µM (inactive) | > 100 µM (inactive) | > 100 µM (inactive) | 19.2 µM (inactive) | > 100 µM (inactive)
COc1cc(C2c3cc4c(cc3OC(NNC(N)=O)C2C)OCO4)cc(OC)c1O (centres undefined) | 1.64 µM (inactive) | 0.933 µM (active) | 2.22 µM (inactive) | 4.9 µM (inactive) | > 100 µM (inactive) | 3.45 µM (inactive) | > 43.9 µM (inactive) | 0.324 µM (active) | 0.512 µM (active) | 2.99 µM (inactive) | 1.04 µM (active) | 0.813 µM (active) | > 28.4 µM (inactive) | 7.29 µM (inactive) | 8.04 µM (inactive) | 1.58 µM (inactive) | 8.26 µM (inactive) | 0.433 µM (active) | 2.12 µM (inactive) | 0.615 µM (active)
COc1cccc2c1CCc1c(-c3ccc(F)cc3)cc(-c3ccc4ccccc4n3)nc1-2 | > 100 µM (inactive) | > 100 µM (inactive) | > 100 µM (inactive) |  | > 100 µM (inactive) | > 100 µM (inactive) | > 100 µM (inactive) | > 100 µM (inactive) | > 100 µM (inactive) | > 100 µM (inactive) | > 100 µM (inactive) | > 100 µM (inactive) | > 100 µM (inactive) | > 100 µM (inactive) | > 100 µM (inactive) | > 100 µM (inactive) | > 100 µM (inactive) | > 100 µM (inactive) | > 100 µM (inactive) | > 100 µM (inactive)
CC12CC3OC(=O)C1COC14OC5(C2C1=O)C(O)(CCC1C4CC2OC24CC=CC(=O)C14C)C(=O)OC35C (centres undefined) | 19.2 µM (inactive) | 12.6 µM (inactive) | > 100 µM (inactive) | 21.5 µM (inactive) | 15.7 µM (inactive) | 27 µM (inactive) | 66.2 µM (inactive) | 13.6 µM (inactive) | 13.2 µM (inactive) | 13.2 µM (inactive) | 24.8 µM (inactive) | 17.3 µM (inactive) | 32 µM (inactive) | 20 µM (inactive) | 16.9 µM (inactive) | 11.6 µM (inactive) | 36.7 µM (inactive) | 12.8 µM (inactive) | 30.4 µM (inactive) | 18.5 µM (inactive)
CC(C)NC(=O)OCc1c(COC(=O)NC(C)C)c(-c2ccc[n+](COC(=O)C(C)(C)C)c2)n2c1CCC2 | > 100 µM (inactive) | 43.4 µM (inactive) | > 67.5 µM (inactive) | 54.1 µM (inactive) | > 100 µM (inactive) | 99.1 µM (inactive) | > 79.3 µM (inactive) | > 100 µM (inactive) | 35.5 µM (inactive) | 40.7 µM (inactive) | 65 µM (inactive) | > 100 µM (inactive) | > 100 µM (inactive) | > 100 µM (inactive) | 64.7 µM (inactive) | > 91.6 µM (inactive) | 57.7 µM (inactive) | 99.8 µM (inactive) | 40.9 µM (inactive) | > 100 µM (inactive)
C=C1C(=O)O[C@H]2C/C(C)=C/CC/C(C)=C/CC[C@@](C)(O)[C@@H](I)C[C@@H]12 | 2.69 µM (inactive) | 4 µM (inactive) | 5.79 µM (inactive) | 5.06 µM (inactive) | 11.7 µM (inactive) | 11.2 µM (inactive) | 4.94 µM (inactive) | 4.6 µM (inactive) | 11.3 µM (inactive) | 3 µM (inactive) | 18.4 µM (inactive) | 5.65 µM (inactive) | 7.14 µM (inactive) | 15 µM (inactive) | 11.7 µM (inactive) | 4.14 µM (inactive) | 14 µM (inactive) | 2.94 µM (inactive) | 13.2 µM (inactive) | 4.49 µM (inactive)
CC1(C)C(CBr)=[N+]([O-])C(C)(C)N1O | > 5.05 µM (inactive) | > 5.38 µM (inactive) | > 10 µM (inactive) | 4.04 µM (inactive) | 2.16 µM (inactive) | > 10 µM (inactive) | 1.77 µM (inactive) | 4.03 µM (inactive) | 7.59 µM (inactive) | 5.71 µM (inactive) | > 10 µM (inactive) | > 10 µM (inactive) | > 5.6 µM (inactive) | > 10 µM (inactive) | > 10 µM (inactive) | 2.12 µM (inactive) | 9.71 µM (inactive) | > 4.93 µM (inactive) | > 10 µM (inactive) | 2.49 µM (inactive)
Clc1ccc(Cc2nc3cc(CCN4CCN(c5ccccc5)CC4)ccc3[nH]2)cc1 | 4.6 µM (inactive) | 17.3 µM (inactive) | 20.3 µM (inactive) | 16 µM (inactive) | 7.01 µM (inactive) | 13.4 µM (inactive) | 10.3 µM (inactive) | 12.9 µM (inactive) | 16 µM (inactive) | 6.87 µM (inactive) | 12.3 µM (inactive) | 11.3 µM (inactive) | 22 µM (inactive) | 20.7 µM (inactive) | 8.07 µM (inactive) | 12 µM (inactive) | 25.5 µM (inactive) | 5.93 µM (inactive) | 12.9 µM (inactive) | 15.7 µM (inactive)
CC1CCC(=O)C(C(=O)CC2CC(=O)N(C)C(=O)C2)C1 (centres undefined) | > 100 µM (inactive) | > 100 µM (inactive) | > 100 µM (inactive) | > 100 µM (inactive) | > 100 µM (inactive) | > 100 µM (inactive) | > 100 µM (inactive) | > 100 µM (inactive) | > 100 µM (inactive) | > 100 µM (inactive) | > 100 µM (inactive) | > 100 µM (inactive) | > 100 µM (inactive) | > 100 µM (inactive) | > 100 µM (inactive) | > 100 µM (inactive) | > 100 µM (inactive) | > 100 µM (inactive) | > 100 µM (inactive) | > 100 µM (inactive)
CNc1ccc(-c2nc3cc(C)ccc3o2)cc1 | > 100 µM (inactive) | 49.5 µM (inactive) | 64.6 µM (inactive) | > 100 µM (inactive) | 13.8 µM (inactive) | > 100 µM (inactive) | > 100 µM (inactive) | > 100 µM (inactive) | 68.5 µM (inactive) | 47.3 µM (inactive) | 28.9 µM (inactive) | > 100 µM (inactive) | 32.4 µM (inactive) | 57.5 µM (inactive) | 72.3 µM (inactive) | > 100 µM (inactive) | 42.7 µM (inactive) | > 100 µM (inactive) | > 100 µM (inactive) | > 100 µM (inactive)
